A word on the Kd: it is the free concentration of one partner at which half of the binding sites on the other are occupied at equilibrium, for simple one-to-one binding. Low readings indicate a tighter complex, high ones a looser complex.

The target in the experiment is T1, estrogen-related receptor alpha (ERRα; NR3B1) (Homo sapiens, UniProt P11474).
T1 construct: gene ESRRA
T1 sequence (P11474 193-423 limits assumed): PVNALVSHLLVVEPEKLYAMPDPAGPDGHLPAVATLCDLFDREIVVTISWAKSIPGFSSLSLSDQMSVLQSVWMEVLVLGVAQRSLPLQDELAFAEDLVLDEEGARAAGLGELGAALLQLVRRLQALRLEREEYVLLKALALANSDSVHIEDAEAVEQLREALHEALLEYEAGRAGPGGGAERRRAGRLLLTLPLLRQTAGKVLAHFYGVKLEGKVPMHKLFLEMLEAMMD
As to the kind of experiment: tryptophan fluorescence quenching; GST pull-down with LC-MS/MS. Format: binding.

`CC(C)CCC[C@@H](C)[C@H]1CC[C@H]2[C@@H]3CC=C4C[C@@H](O)CC[C@]4(C)[C@H]3CC[C@]12C` [cholesterol] registered a dissociation constant (Kd) of 213 nM.

For the origin of these results see article PMC7463712, “Cholesterol as an Endogenous Ligand of ERRα Promotes ERRα-Mediated Cellular Proliferation and Metabolic Target Gene Expression in Breast Cancer Cells” (Cells, 2020).
